Data on eleven compounds can be found in PMC8958504 (Journal of Medicinal Chemistry, 2022).

Read-outs that look alike come from different tables or passages of the source.

The nature of data set [1]: Oxygen radical absorbance capacity (ORAC-FL) assay. As to conditions: trolox = 1.0. The protocol:
2,2′-Azobis-(amidinopropane) dihydrochloride (AAPH), trolox, and fluorescein (FL) were purchased from Sigma-Aldrich. The reaction was carried out in a 75 mM phosphate buffer (pH 7.4), and the final reaction mixture was 200 μL. […] Antioxidant curves (fluorescence vs time) were first normalized to the curve of the blank corresponding to the same assay, and the area under the curve (AUC) of fluorescence decay was calculated. The net AUC corresponding to a sample was calculated by subtracting the AUC corresponding to the blank. Regression equations between the net AUC and antioxidant concentration were calculated for all the samples.

Data set [2] can be described thus: in vitro. Format: in vitro ADME. The following applies: for Papp at 240 min, 100 μg mL^–1: PAMPA; for PAMPA-BBB (Pe, 10^–6 cm s^–1): porcine brain lipid.
For data set [3], the target named is T1, hMAO-A (Homo sapiens, UniProt P21397).
T1 sequence (P21397 1-527): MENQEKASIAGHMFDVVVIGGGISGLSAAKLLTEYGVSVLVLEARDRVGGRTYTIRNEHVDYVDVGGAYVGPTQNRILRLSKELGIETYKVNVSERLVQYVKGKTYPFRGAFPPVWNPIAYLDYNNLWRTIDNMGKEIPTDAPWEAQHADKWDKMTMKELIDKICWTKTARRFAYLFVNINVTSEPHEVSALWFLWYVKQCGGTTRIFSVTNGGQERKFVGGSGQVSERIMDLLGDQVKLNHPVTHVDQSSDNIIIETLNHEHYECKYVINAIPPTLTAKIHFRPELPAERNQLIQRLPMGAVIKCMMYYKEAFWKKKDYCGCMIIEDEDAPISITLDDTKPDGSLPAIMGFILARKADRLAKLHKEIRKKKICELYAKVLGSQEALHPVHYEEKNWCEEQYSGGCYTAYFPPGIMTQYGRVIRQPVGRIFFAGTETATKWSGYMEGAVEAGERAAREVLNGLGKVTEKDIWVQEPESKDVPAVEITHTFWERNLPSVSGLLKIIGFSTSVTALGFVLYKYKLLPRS
Put plainly: biochemical. The following applies: for IC50: read-out: hMAO-A (IC50), recombinant hMAO-A, p-tyramine substrate. The protocol:
(§1) The hMAO-A/B inhibition of all compounds was determined using the Amplex Red MAO assay kit.
(§2) Assays were performed following the general procedure previously described.[98] […] The specific fluorescence emission was calculated after subtracting the background activity, which was determined from wells containing all components except the hMAO isoforms, which were replaced with PBS.

In data set [4] the target is T2, hMAO-B (Homo sapiens, UniProt P27338).
T2 sequence (P27338 1-520): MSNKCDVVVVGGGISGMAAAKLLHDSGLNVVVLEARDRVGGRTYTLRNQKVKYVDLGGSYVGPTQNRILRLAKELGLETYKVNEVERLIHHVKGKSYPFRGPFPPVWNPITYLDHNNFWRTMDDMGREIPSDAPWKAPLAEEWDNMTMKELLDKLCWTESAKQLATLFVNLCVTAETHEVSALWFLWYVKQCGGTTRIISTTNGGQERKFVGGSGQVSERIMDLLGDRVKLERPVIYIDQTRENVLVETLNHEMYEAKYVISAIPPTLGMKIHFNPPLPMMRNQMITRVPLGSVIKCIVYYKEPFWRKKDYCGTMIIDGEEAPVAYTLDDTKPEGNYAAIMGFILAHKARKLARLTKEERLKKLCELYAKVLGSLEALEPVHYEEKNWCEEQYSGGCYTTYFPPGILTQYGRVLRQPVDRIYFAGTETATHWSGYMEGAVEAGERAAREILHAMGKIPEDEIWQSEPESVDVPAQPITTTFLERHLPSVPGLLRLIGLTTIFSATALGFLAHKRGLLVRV
Nature of the data set: biochemical. As to conditions: for IC50: read-out: hMAO-B (IC50), recombinant hMAO-B, p-tyramine substrate. The protocol: as §1, §2

Data set [5] concerns NRF2-ARE signaling pathway. Nature of the data set: cells. As to conditions: for EC (2-fold induction): Arec32, 24 h, read-out: NRF2 (CD, μM), concentration required to double luciferase activity, AREc32 cells, 24 h; for NRF2 (CD, μM): concentration required to double luciferase activity, AREc32 cells, 24 h. The data set is classed as cell-based. The protocol: AREc32 cells were plated in 96-well white plates (2 × 10^4 cells/well). […]. The AREc32 cells constitutively express the plasmid pGL-8xARE that implements eight copies of the EpRE sequences, followed by the luciferase reporter gene. Therefore, NRF2 induction is related to the activation of EpRE sequences, expressing luciferase at the same extent as EpRE sequences are activated. The Luciferase Assay System (Promega E1500) was used according to the provider’s protocol, and luminescence was quantified in an Orion II microplate luminometer (Berthold, Germany). Fold induction of luciferase activity was normalized to basal conditions. Data are expressed as CD values, expressing the concentration required to double the luciferase activity. CD values were calculated from dose–response curves generated from the fold induction of control conditions versus inducer concentration and fitted by nonlinear regression and data interpolated to twofold induction concentration.[68]

Where [6] appears, read: pH 7.4, class from PAMPA-BBB Pe, read-out: CNS-permeability prediction.
The mark [7] stands for this setting: PBS/EtOH (70:30), 240 min, 25 °C.

Consider `COc1ccc(/C=C/c2n[nH]c(=O)o2)c(OC)c1` [2f, 5-[(E)-2-(2,4-Dimethoxyphenyl)ethenyl]-1,3,4-oxadiazol-2(3H)-one], for which the “ORAC (trolox equiv)” value in data set [1] was 0.6 ± 0.08 trolox equiv. In addition, the Papp at 240 min, 100 μg mL^–1 in data set [2] (setting [6]) was 2 to 4 ×10⁻⁶ cm/s. Also, in data set [2] (setting [7]), the “PAMPA-BBB (Pe, 10^–6 cm s^–1)” value is on record as 3.6 ± 0.2 10^–6 cm s^–1. For the same compound, the IC50 in data set [3] and in data set [4] was more than 50 µM each time.

As to `C#CCNC(=O)/C=C/c1ccc(O)c(OC)c1` [6n, (2E)-3-(4-Hydroxy-3-methoxyphenyl)-N-(prop-2-yn-1-yl)prop-2-enamide], in data set [1], the “ORAC (trolox equiv)” value came to 0.5 ± 0.03 trolox equiv. Also, the Papp at 240 min, 100 μg mL^–1 in data set [2] (setting [6]) was less than 2 ×10⁻⁶ cm/s; in data set [2] (pH 7.4, porcine brain lipid, PBS/EtOH (70:30), 240 min, 25 °C, read-out: PAMPA-BBB), less than 2 ×10⁻⁶ cm/s. For the same compound, the “PAMPA-BBB (Pe, 10^–6 cm s^–1)” value in data set [2] (setting [7]) is ≤ 0.5 10^–6 cm s^–1. The EC (2-fold induction) in data set [5] was more than 60 µM. For the same compound, the “NRF2 (CD, μM)” value in data set [5] was more than 60 µM. The IC50 in data set [3] and in data set [4] was more than 50 µM each time. Also, the inhibition at 50 µM in data set [3] (read-out: hMAO-A percentage of inhibition (in brackets)) and in data set [4] (read-out: hMAO-B percentage of inhibition (in brackets)) was 33% in each case.

With `C#CCNC(=O)/C=C/c1cccc(C#N)c1` [6b, (2E)-3-(3-Cyanophenyl)-N-(prop-2-yn-1-yl)prop-2-enamide], in data set [1], the “ORAC (trolox equiv)” value was less than 0.1 trolox equiv. Besides, in data set [5], the EC (2-fold induction) was more than 60 µM. Further, the IC50 in data set [3] and in data set [4] was more than 50 µM throughout.

For `COc1ccc(OC)c(/C=C/c2n[nH]c(=O)o2)c1` [2g, 5-[(E)-2-(2,5-Dimethoxyphenyl)ethenyl]-1,3,4-oxadiazol-2(3H)-one], in data set [1], the “ORAC (trolox equiv)” value was less than 0.1 trolox equiv. Moreover, in data set [2] (setting [6]), the Papp at 240 min, 100 μg mL^–1 was 2 to 4 ×10⁻⁶ cm/s. In data set [2] (setting [7]), the “PAMPA-BBB (Pe, 10^–6 cm s^–1)” value is given as 3.0 ± 0.2 10^–6 cm s^–1. Besides, the IC50 in data set [3] and in data set [4] was more than 50 µM in each case.

Regarding `C#CCNC(=O)/C=C/c1ccc(O)cc1` [6m, (2E)-3-(4-Hydroxyphenyl)-N-(prop-2-yn-1-yl)prop-2-enamide], the “ORAC (trolox equiv)” value in data set [1] amounted to 3.0 ± 0.2 trolox equiv. Also, the half-inhibitory concentration (IC50) in data set [3] is more than 50 µM; in data set [4], 31.1 ± 1.57 µM.

Take `COc1cc(/C=C/c2n[nH]c(=O)o2)cc(OC)c1OC` [2k, 5-[(E)-2-(3,4,5-Trimethoxyphenyl)ethenyl]-1,3,4-oxadiazol-2(3H)-one]: the “ORAC (trolox equiv)” value in data set [1] was less than 0.1 trolox equiv. For the same compound, the Papp at 240 min, 100 μg mL^–1 in data set [2] (setting [6]) was less than 2 ×10⁻⁶ cm/s. In data set [2] (setting [7]), the “PAMPA-BBB (Pe, 10^–6 cm s^–1)” value is ≤ 0.5 10^–6 cm s^–1. Besides, the IC50 in data set [3] and in data set [4] was more than 50 µM throughout.

For the compound `C[S+]([O-])CCCCN=C=S` (stereo not shown) [sulforaphane, reference compound], in data set [5], the EC (2-fold induction) turned out to be 1.24 µM and the “NRF2 (CD, μM)” value amounted to 1.24 ± 0.28 µM.

For `C#CCNC(=O)/C=C/c1cccc(O)c1` [6l, (2E)-3-(3-Hydroxyphenyl)-N-(prop-2-yn-1-yl)prop-2-enamide], the “ORAC (trolox equiv)” value in data set [1] is recorded as 3.0 ± 0.3 trolox equiv. The IC50 in data set [3] and in data set [4] was more than 50 µM each time.

As for `C[C@]12CCC(=O)C=C1CC[C@@H]1[C@@H]2[C@@H](O)C[C@]2(C=O)[C@@H](C(=O)CO)CC[C@@H]12` [Aldosterone, reference compound], in data set [2] (pH 7.4, PAMPA standards, mean ± SD of three experiments, read-out: Permeability Pe, Exp), the Papp at 240 min, 100 μg mL^–1 stood at 3.1 ± 0.2 ×10⁻⁶ cm/s.

In the case of `O=c1[nH]nc(/C=C/c2ccc3c(c2)OCO3)o1` [2i, 5-[(E)-2-(2H-1,3-Benzodioxol-5-yl)ethenyl]-1,3,4-oxadiazol-2(3H)-one], in data set [1], the “ORAC (trolox equiv)” value is less than 0.1 trolox equiv. Also, the Papp at 240 min, 100 μg mL^–1 in data set [2] (setting [6]) is 2 to 4 ×10⁻⁶ cm/s. The “PAMPA-BBB (Pe, 10^–6 cm s^–1)” value in data set [2] (setting [7]) was 3.8 ± 0.2 10^–6 cm s^–1. The half-maximal inhibitory concentration (IC50) is more than 50 µM in data set [3] and 27.6 ± 0.9 µM in data set [4].

Regarding `C#CCNC(=O)/C=C/c1ccc(OC)cc1` [6e, (2E)-3-(4-Methoxyphenyl)-N-(prop-2-yn-1-yl)prop-2-enamide], the “ORAC (trolox equiv)” value in data set [1] is listed as less than 0.1 trolox equiv. The IC50 in data set [3] and in data set [4] was more than 50 µM throughout.

In general, IC50 refers to the concentration at which inhibition is half-maximal. Usually inhibition stands for the share of the control response that was lost under treatment.
